Common to all, as to type: physicochemical
Series [1] can be described thus: Moisture absorption and dehumidification tests at defined relative humidities (condition observed, weight change). Particulars: two days or more. The protocol:
After 40 mg of the amorphous form of maleic acid salt prepared in Example 1 was thinly coated onto a beaker, the sample was moisture-absorbed by placing it at each relative humidity of 33%, 57%, 64%, 75% and 93% for two days or more and its condition was observed. In order to obtain each relative humidity above, as shown in the table below, saturated aqueous solutions of salts were prepared and then placed in a desiccator, and the desiccator was sealed.
100 mg of the crystalline form of maleic acid salt prepared in Example 2 was thinly coated onto a beaker and then placed at each relative humidity of 33%, 57%, 64%, 75% and 93% for two days or more to be moisture-absorbed. Thereafter, the weight change of the sample was measured while its condition is observed. In order to obtain each relative humidity above, as shown in Table 2 of Test example 2, saturated aqueous solutions of salts were prepared and then placed in a desiccator and the desiccator was sealed.
The method as described in Test example 2 was applied to the amorphous diHCl salt prepared in Comparative Example 1. From observing its change at each relative humidity, it is shown that the salt was deliquesced at the relative humidity of 75%. […] Therefore, it can be shown that the maleic acid salt is the most excellent among various acid salts.

Series [2] in a line: Powder X-ray diffraction test during moisture absorption and dehumidification. Particulars: vacuum dried, then relative humidity 33%, 53%, 64%, 75% and 93%, two days or more each. As to the method: 40 mg of the crystalline form of maleic acid salt prepared in Example 2 was thinly coated onto a sample holder and then the powder X-ray diffraction test was conducted according to the following conditions. By using Rigaku Geigeflex D/max-III C apparatus, the test was conducted at 35 kV, 20 mA.
40 mg of the maleic acid salt prepared in Example 2 was thinly coated onto a sample holder. Immediately after the sample was vacuum dried in the presence of P2O5, and after the sample was placed for moisture absorption at each relative humidity of 33%, 53%, 64%, 75% and 93% for two days or more, respectively, the powder X-ray diffraction test of the sample was conducted according to the conditions represented in the above Test example 1 to observe change of the crystalline form during moisture absorption. While lowering the relative humidity, the same test was repeated to observe change of the crystalline form during dehumidification. In order to obtain each relative humidity above, as shown in Table 2 of Test example 2, saturated aqueous solutions of salts were prepared and then placed in a desiccator and the desiccator was sealed.

Series [3] in a line: Test of the dissolution rate per unit area (0.5 cm^2 disk in buffer solutions). The protocol: Some compounds may have difficulty in being absorbed due to a low dissolution rate. To confirm the above difficulty beforehand, a disk having the area of 0.5 cm^2 is prepared, and then its dissolution rate in various media is measured. The dissolution amount over time is measured and its value is divided by the disk's area. The value is the dissolution rate per unit area. If the value is usually 1 mg/min/cm^2 or more, it can be said that there is no phenomenon for the drug not to be absorbed due to the low dissolution rate. If the value is 0.1 mg/min/cm^2 or less, it can be said that the drug has a problem of absorption due to the low dissolution rate (see, Howard C. Ansel, Nicholas G. Popovich and Loyd V. Allen, 1995, Pharmaceutical Dosage Forms and Drug Delivery Systems, 6th ed., Williams & Wilkins, pp.109 and Jens T. Carstensen, 1996, Modern Pharmaceutics: Gilbert S. Banker and Christopher T. Rhodes (Ed.), Drugs and the pharmaceutical sciences, Vol. 72, 3rd ed., Dekker, pp. 233.). Thus, measuring the dissolution rate per unit area has a very significant meaning in predicting the absorption problem that may occur in in vivo test of the drug later. Therefore, a compound having an excellent dissolution rate per unit area should be selected as a candidate for the drug development.
200 mg of the crystalline form of maleic acid salt prepared in Example 2 was put into a mold. By applying pressure on the mold, a disk having the area of 0.5 cm^2 was prepared and the disk was added to each of the buffer solutions (600 ml) of pH 3.8 and 7.4 to conduct the dissolution test. A portion of the solution was periodically taken and its concentration was measured to determine the dissolution rate per unit area.
The same test as Test example 5 was conducted on the free compound of Formula 1. The dissolution rate per unit area of the free compound was 1.3 mg/min/cm^2 at pH 3.8 and 0.3 mg/min/cm^2 at pH 7.4.

Molecules are shown by their SMILES. Structures can show the parent of a compound that is named as a salt.

`N=C(N)c1ccc(CNC(=O)[C@@H]2CCCN2C(=O)[C@H](NCC(=O)O)C(c2ccccc2)c2ccccc2)s1` [amorphous diHCl salt]: in series [1] (relative humidity of 75%), the “condition observed after moisture absorption” value (shortened to “condition observed”) is given as “deliquesced”.
As for `N=C(N)c1ccc(CNC(=O)[C@@H]2CCCN2C(=O)[C@H](NCC(=O)O)C(c2ccccc2)c2ccccc2)s1.O=C(O)/C=C\C(=O)O` [amorphous form of maleic acid salt, maleic acid salt of (2S)-N-{5-[amino(imino)methyl]-2-thienyl}methyl-1-{(2R)-2-[(carboxymethyl)amino]-3,3-diphenylpropanoyl}-2-pyrrolidine carboxamide], the “condition observed” value in series [1] (relative humidity of 75%) is reported as “hardened”; in series [1] (relative humidity of 93%) it was “deliquesced”.
`N=C(N)c1ccc(CNC(=O)[C@@H]2CCCN2C(=O)[C@H](NCC(=O)O)C(c2ccccc2)c2ccccc2)s1.O=C(O)/C=C\C(=O)O` [crystalline form of maleic acid salt, maleic acid salt of (2S)-N-{5-[amino(imino)methyl]-2-thienyl}methyl-1-{(2R)-2-[(carboxymethyl)amino]-3,3-diphenylpropanoyl}-2-pyrrolidine carboxamide]: the “weight increase on moisture absorption based on initial weight” value turned out to be 1.4% in series [1] (relative humidity of 33%); 3.0% in series [1] (relative humidity of 57%); 4.3% in series [1] (relative humidity of 64%); 4.1% in series [1] (relative humidity of 75%); 6.7% in series [1] (relative humidity of 93%). Also, the “condition observed” value in series [1] (relative humidity of 93%) was “not deliquesced”. In addition, the “change of the powder X-ray diffraction diagram (crystalline form) during moisture absorption and dehumidification” value in series [2] is on record as “did not show any change”. The “dissolution rate per unit area” value was 11.8 mg/min/cm^2 in series [3] (buffer solution pH 3.8, 600 ml) and 1.7 mg/min/cm^2 in series [3] (buffer solution pH 7.4, 600 ml).
On to `N=C(N)c1ccc(CNC(=O)[C@@H]2CCCN2C(=O)[C@H](NCC(=O)O)C(c2ccccc2)c2ccccc2)s1` [free compound, (2S)-N-{5-[amino(imino)methyl]-2-thienyl}methyl-1-{(2R)-2-[(carboxymethyl)amino]-3,3-diphenylpropanoyl}-2-pyrrolidine carboxamide], for which the “dissolution rate per unit area” value was 1.3 mg/min/cm^2 in series [3] (buffer solution pH 3.8, 600 ml) and 0.3 mg/min/cm^2 in series [3] (buffer solution pH 7.4, 600 ml).

These data come from patent US20050154229A1, “Maleic acid salt of(2s)-n-{5-[amino(imino)methy]-2-thienyl}methyl-1-{(2r)-2-[(carboxymethyl)amino]-3,3-diphenylpropanoyl}-2-pyrrolidine carboxamide and a process for” (priority 2002, published 2005).
